Assays:
[1] = target: T1, bovine milk lipoprotein lipase (Bos taurus, UniProt P11151); conditions: cited from earlier work
T1 construct: host or cells: bovine milk
T1 sequence (P11151 29-478): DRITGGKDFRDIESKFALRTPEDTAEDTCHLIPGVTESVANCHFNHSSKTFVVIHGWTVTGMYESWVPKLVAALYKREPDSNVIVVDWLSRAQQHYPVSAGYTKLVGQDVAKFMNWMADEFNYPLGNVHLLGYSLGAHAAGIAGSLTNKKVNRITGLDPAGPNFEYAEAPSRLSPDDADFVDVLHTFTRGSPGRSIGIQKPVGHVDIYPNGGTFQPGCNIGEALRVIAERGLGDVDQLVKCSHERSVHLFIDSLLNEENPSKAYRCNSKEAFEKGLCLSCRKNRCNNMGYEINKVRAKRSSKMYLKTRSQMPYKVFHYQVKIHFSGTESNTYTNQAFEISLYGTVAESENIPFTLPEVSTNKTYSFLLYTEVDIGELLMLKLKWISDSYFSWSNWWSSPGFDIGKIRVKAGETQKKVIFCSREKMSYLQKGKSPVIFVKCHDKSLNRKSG

LAL [2] = target: T2, LAL (Cricetulus griseus, UniProt G3HQY6); assay: PS-20 remaining in mAb formulation with and without Lalistat-2; format: biochemical; parameters: endogenous in cells; host or cells: mAb production cells (CHO inferred); conditions: mAb-15 comprising 0.05% PS-20, 37° C., 15 days, 0.1 M Lalistat-2
T2 sequence (G3HQY6 19-397): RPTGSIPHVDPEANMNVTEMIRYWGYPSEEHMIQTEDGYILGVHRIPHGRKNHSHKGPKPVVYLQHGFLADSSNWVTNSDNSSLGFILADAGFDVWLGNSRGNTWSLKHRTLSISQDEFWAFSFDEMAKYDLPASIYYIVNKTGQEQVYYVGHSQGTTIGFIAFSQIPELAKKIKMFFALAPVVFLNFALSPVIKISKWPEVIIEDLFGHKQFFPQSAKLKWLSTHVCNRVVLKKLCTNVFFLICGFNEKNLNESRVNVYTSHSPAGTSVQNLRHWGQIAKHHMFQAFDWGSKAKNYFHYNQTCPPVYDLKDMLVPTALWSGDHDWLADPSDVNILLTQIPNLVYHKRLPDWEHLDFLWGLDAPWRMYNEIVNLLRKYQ
Protocol: mAb-15 comprising 0.05% PS-20 was incubated at 37° C. for 15 days in presence and absence of 0.1 M Lalistat-2. The incubated samples were analyzed at t=0, 8 days and […].

LAL [3] = target: T2, LAL; assay: PS-20 remaining with LAL, with and without Lalistat-2; format: biochemical; parameters: made in house; host or cells: CHO cells; conditions: 0.05% PS-20 and 5 μg/mL LAL; t=0, 8 days and 15 days
Protocol: The incubated samples were analyzed at t=0, 8 days and 15 days.

LPL = target: T3, LPL (Homo sapiens, UniProt P06858); assay: PS-20 remaining with LPL, with and without Lalistat-2; format: biochemical; conditions: 0.05% PS-20 and 10 μg/mL LPL; t=0, 8 days and 15 days
T3 sequence (P06858 28-475): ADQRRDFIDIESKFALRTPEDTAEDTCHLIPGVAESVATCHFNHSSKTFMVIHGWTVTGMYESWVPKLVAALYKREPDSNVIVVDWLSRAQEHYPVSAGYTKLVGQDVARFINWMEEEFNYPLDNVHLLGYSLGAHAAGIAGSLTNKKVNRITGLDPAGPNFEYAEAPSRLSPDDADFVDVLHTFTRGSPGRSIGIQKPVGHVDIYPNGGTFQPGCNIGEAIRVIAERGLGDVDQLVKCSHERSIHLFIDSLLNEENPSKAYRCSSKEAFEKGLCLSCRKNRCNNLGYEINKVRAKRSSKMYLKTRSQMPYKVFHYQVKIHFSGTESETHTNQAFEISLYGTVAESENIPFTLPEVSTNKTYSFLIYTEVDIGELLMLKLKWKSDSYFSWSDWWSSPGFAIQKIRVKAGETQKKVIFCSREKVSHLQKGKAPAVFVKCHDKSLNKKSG
Protocol: Thus, addition of Lalistat only causes inhibition of LAL […]. […] The incubated samples were analyzed at t=0, 8 days and 15 days. […] Therefore, if lalistat2 can inhibit lipase activity in mAbs completely, then it means the LPL detected from mAbs were not active or abundance are too low to degrade PS20. The PS20 degradation seen from recombinant LPL may either due to the only LPL in high concentration can degrade PS20, or due to unexpected impurities presented in the recombinant LPL.

[4] = target: T4, lysosomal acid lipase (LAL) (Homo sapiens, UniProt P38571); conditions: cited from earlier work
T4 sequence (P38571 77-399): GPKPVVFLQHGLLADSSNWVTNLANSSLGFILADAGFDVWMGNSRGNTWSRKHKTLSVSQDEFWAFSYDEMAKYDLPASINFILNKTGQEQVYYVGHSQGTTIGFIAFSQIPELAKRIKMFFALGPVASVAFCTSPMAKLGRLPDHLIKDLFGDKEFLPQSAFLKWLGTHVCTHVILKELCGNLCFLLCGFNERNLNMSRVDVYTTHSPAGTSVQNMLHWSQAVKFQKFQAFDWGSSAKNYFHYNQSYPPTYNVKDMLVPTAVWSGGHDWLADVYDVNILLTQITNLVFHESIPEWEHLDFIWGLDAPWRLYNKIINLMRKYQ

## O=C(Oc1nsnc1N1CCCCC1)N1CCCCC1 [Lalistat 2]
[1]
  inhibition of bovine milk lipoprotein lipase: does not exhibit inhibition
LAL [2]
  degradation of PS-20 in mAb formulation incubated with Lalistat-2: almost no degradation of PS-20
LAL [3]
  degradation of PS-20 in sample incubated with Lalistat-2: almost no degradation of PS-20
LPL
  inhibition of LPL's activity (PS-20 remaining): cannot inhibit LPL's activity
[4]
  IC50: 152 nM
